System: C-reactive protein (CRP)
Assay: CRP (hs-CRP) in blood, CHASE clinical study
Type: in vivo, human
Conditions: Group X 12 mg BID
Source text: This is a two-part study comprising Part I and Part II. Following screening, Part I consists of a randomized, double-blind, placebo controlled dosing period of up to 12 weeks. The study shall be conducted at one or more study sites in Hawaii. Approximately 360 subjects qualified after completion of screening procedures shall be randomized in a 1:1:1 ratio to one of three treatment groups, per Table 1.
The Part I 12-week double-blind dosing period commences with V2, including randomization and first dose of study product, and continues with study visits at Week 1-2 (V3), Week 4 (V4), Week 8 (V5), and Week 12 (V6). V6 procedures will conclude Part I.
Blood shall be obtained at each visit for CRP. The screening specimen shall be processed at the local lab and reported to the study staff for eligibility determination; CRP samples at V7 and V8 may also be processed locally and reported directly to study staff. Samples for CRP from V2 through V6 may be batched, processed, and reported as specified in the Laboratory Manual.
At each these visits, blood was obtained for measurement of CRP, among other parameters. Table 7A provides a summary of the CRP measurements (mg/L) at each visit and Table 7B provides a summary of the differences of CRP levels between V2 and V6.

[1] = V1 screening, subjects with baseline level greater than 2.0
[2] = V2 baseline pre-dose, all subjects
[3] = V2 baseline pre-dose, subjects not taking a hypertension agent
[4] = V2 baseline pre-dose, subjects not taking any cardiac therapeutic agent
[5] = V2 baseline pre-dose, subjects not taking statins
[6] = V2 baseline pre-dose, subjects taking an anti-diabetic agent
[7] = V2 baseline pre-dose, subjects with CAD
[8] = V2 baseline pre-dose, subjects with DM2, hypertension and hyperlipidemia but not CAD
[9] = V2 baseline pre-dose, subjects with Diabetes Mellitus Type II
[10] = V2 baseline pre-dose, subjects with baseline level greater than 2.0
[11] = V2 baseline pre-dose, subjects with hyperlipidemia
[12] = V3 Week 1-2, subjects with baseline level greater than 2.0
[13] = V4 Week 4, subjects with baseline level greater than 2.0
[14] = V5 Week 8, subjects with baseline level greater than 2.0
[15] = V6 Week 12, subjects not taking a hypertension agent
[16] = V6 Week 12, subjects not taking any cardiac therapeutic agent
[17] = V6 Week 12, subjects not taking statins
[18] = V6 Week 12, subjects taking an anti-diabetic agent

CC1=C(/C=C/C(C)=C/C=C/C(C)=C/C=C/C=C(C)/C=C/C=C(C)/C=C/C2=C(C)C(=O)C(O)CC2(C)C)C(C)(C)CC(O)C1=O (stereo not drawn) [Astaxanthin, astaxanthin]
CRP Max (V1 screening, all subjects): 15.96 mg/L
CRP Mean (SD) (V1 screening, all subjects): 5.43 (3.91) mg/L
CRP Median (V1 screening, all subjects): 3.95 mg/L
CRP Min (V1 screening, all subjects): 2.87 mg/L
CRP Max [1]: 15.96 mg/L
CRP Mean (SD) [1]: 5.64 (4.06) mg/L
CRP Median [1]: 3.98 mg/L
CRP Min [1]: 2.87 mg/L
CRP Max [2]: 17.86 mg/L
CRP Mean (SD) [2]: 5.52 (4.80) mg/L
CRP Median [2]: 3.64 mg/L
CRP Min [2]: 1.39 mg/L
CRP Max [3]: 3.64, 3.64 mg/L
CRP Mean (SD) [3]: 3.64 mg/L
CRP Median [3]: 3.64 mg/L
CRP Min [3]: 3.64, 3.64 mg/L
CRP Max [4]: 17.86 mg/L
CRP Mean (SD) [4]: 6.81 (6.86) mg/L
CRP Median [4]: 3.64 mg/L
CRP Min [4]: 1.39 mg/L
CRP Max [5]: 8.61 mg/L
CRP Mean (SD) [5]: 4.04 (2.48) mg/L
CRP Median [5]: 3.12 mg/L
CRP Min [5]: 2.16 mg/L
CRP Max [6]: 17.86 mg/L
CRP Mean (SD) [6]: 7.52 (5.87) mg/L
CRP Median [6]: 6.78 mg/L
CRP Min [6]: 1.39 mg/L
CRP Max [7]: 8.61, 8.61 mg/L
CRP Mean (SD) [7]: 8.61 mg/L
CRP Median [7]: 8.61 mg/L
CRP Min [7]: 8.61, 8.61 mg/L
CRP Max [8]: 17.86 mg/L
CRP Mean (SD) [8]: 7.30 (6.54) mg/L
CRP Median [8]: 4.94 mg/L
CRP Min [8]: 1.39 mg/L
CRP Max [9]: 17.86 mg/L
CRP Mean (SD) [9]: 7.52 (5.87) mg/L
CRP Median [9]: 6.78 mg/L
CRP Min [9]: 1.39 mg/L
CRP Max [10]: 17.86 mg/L
CRP Mean (SD) [10]: 5.93 (4.85) mg/L
CRP Median [10]: 4.29 mg/L
CRP Min [10]: 2.16 mg/L
CRP Max [11]: 17.86 mg/L
CRP Mean (SD) [11]: 6.71 (5.19) mg/L
CRP Median [11]: 4.95 mg/L
CRP Min [11]: 1.39 mg/L
CRP Max (V3 Week 1-2, all subjects): 6.72 mg/L
CRP Mean (SD) (V3 Week 1-2, all subjects): 3.72 (2.06) mg/L
CRP Median (V3 Week 1-2, all subjects): 3.44 mg/L
CRP Min (V3 Week 1-2, all subjects): 0.44 mg/L
CRP Max [12]: 6.72 mg/L
CRP Mean (SD) [12]: 3.97 (1.97) mg/L
CRP Median [12]: 3.55 mg/L
CRP Min [12]: 0.44 mg/L
CRP Max (V4 Week 4, all subjects): 15.83 mg/L
CRP Mean (SD) (V4 Week 4, all subjects): 3.98 (4.24) mg/L
CRP Median (V4 Week 4, all subjects): 2.56 mg/L
CRP Min (V4 Week 4, all subjects): 0.56 mg/L
CRP Max [13]: 15.83 mg/L
CRP Mean (SD) [13]: 4.22 (4.39) mg/L
CRP Median [13]: 3.27 mg/L
CRP Min [13]: 0.56 mg/L
CRP Max (V5 Week 8, all subjects): 18.24 mg/L
CRP Mean (SD) (V5 Week 8, all subjects): 4.90 (4.99) mg/L
CRP Median (V5 Week 8, all subjects): 3.71 mg/L
CRP Min (V5 Week 8, all subjects): 1.06 mg/L
CRP Max [14]: 18.24 mg/L
CRP Mean (SD) [14]: 5.29 (5.09) mg/L
CRP Median [14]: 4.08 mg/L
CRP Min [14]: 1.06 mg/L
CRP Max (V6 Week 12, all subjects): 11.04 mg/L
CRP Mean (SD) (V6 Week 12, all subjects): 3.45 (3.09) mg/L
CRP Median (V6 Week 12, all subjects): 2.70 mg/L
CRP Min (V6 Week 12, all subjects): 0.22 mg/L
CRP Max [15]: 2.70, 2.70 mg/L
CRP Mean (SD) [15]: 2.70 mg/L
CRP Median [15]: 2.70 mg/L
CRP Min [15]: 2.70, 2.70 mg/L
CRP Max [16]: 6.80 mg/L
CRP Mean (SD) [16]: 2.53 (2.56) mg/L
CRP Median [16]: 1.91 mg/L
CRP Min [16]: 0.22 mg/L
CRP Max [17]: 11.04 mg/L
CRP Mean (SD) [17]: 3.86 (3.78) mg/L
CRP Median [17]: 2.71 mg/L
CRP Min [17]: 0.22 mg/L
CRP Max [18]: 6.80 mg/L
CRP Mean (SD) [18]: 2.91 (2.07) mg/L
CRP Median [18]: 2.32 mg/L
CRP Min [18]: 1.02 mg/L
CRP Max (V6 Week 12, subjects with CAD): 2.72, 2.72 mg/L
CRP Mean (SD) (V6 Week 12, subjects with CAD): 2.72 mg/L
CRP Median (V6 Week 12, subjects with CAD): 2.72 mg/L
CRP Min (V6 Week 12, subjects with CAD): 2.72, 2.72 mg/L

Source: patent US20200085776A1, “Methods of Reducing C-Reactive Protein and/or Treating Cardiovascular Disease” (CARDAX, INC., priority 2018, published 2020)
